Columns and labels:
system Xc^− [1] = biological target: T1, system Xc^− (Homo sapiens, UniProt Q9UPY5); test: Cystine-induced glutamate release assay; format: cell-based; design: endogenous in cells; host or cells: H4 cells; conditions: H4 cells, sodium-free HEPES buffer, 50 μM L-Cystine, 2 hours, Amplex Red glutamate readout; read-out: pIC50 Cystine-induced glutamate release assay (converted)
T1 sequence (Q9UPY5 1-501): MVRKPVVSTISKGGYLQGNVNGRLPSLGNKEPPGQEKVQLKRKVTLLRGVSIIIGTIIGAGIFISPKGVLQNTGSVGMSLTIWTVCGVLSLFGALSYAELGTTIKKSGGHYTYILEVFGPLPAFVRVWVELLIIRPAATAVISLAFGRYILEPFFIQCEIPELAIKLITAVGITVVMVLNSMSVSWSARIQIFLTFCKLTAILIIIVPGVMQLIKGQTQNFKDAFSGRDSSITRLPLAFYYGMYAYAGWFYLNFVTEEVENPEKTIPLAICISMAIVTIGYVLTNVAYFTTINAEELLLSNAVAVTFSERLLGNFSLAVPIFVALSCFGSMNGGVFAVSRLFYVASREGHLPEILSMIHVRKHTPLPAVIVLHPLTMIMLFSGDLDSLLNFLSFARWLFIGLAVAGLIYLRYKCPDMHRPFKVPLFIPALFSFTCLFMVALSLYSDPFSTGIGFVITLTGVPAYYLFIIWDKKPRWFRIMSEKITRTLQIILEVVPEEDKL
T1 sequence (P08195 1-529 partner): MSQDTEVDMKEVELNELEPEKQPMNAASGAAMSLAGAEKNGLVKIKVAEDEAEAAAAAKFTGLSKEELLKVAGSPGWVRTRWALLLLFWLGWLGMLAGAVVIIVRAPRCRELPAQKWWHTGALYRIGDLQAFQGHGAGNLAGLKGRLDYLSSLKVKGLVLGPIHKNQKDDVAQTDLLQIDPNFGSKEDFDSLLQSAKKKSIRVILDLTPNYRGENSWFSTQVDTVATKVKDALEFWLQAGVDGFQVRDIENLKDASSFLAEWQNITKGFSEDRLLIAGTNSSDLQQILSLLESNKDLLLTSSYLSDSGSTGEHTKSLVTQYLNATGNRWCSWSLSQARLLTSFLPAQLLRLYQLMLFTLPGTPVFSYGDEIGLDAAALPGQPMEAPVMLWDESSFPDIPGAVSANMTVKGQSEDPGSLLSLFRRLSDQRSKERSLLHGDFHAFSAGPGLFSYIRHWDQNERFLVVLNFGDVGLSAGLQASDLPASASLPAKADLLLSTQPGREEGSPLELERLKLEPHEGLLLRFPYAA
In short: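 H4 cells in sodium-free HEPES buffer (pH 7.4), 2 days after plating; glutamate release induced with 50 μM L-cystine plus compound (1% DMSO), 2 h at 37 °C. Supernatant glutamate measured by Amplex Red fluorescence; IC50/pIC50 derived between 1% DMSO and 50 μM erastin controls.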

system Xc^− [2] = biological target: T1, system Xc^−; test: [^14C]L-Cystine uptake assay; format: cell-based; design: endogenous in cells; host or cells: H4 cells; conditions: H4 cells, sodium-free HEPES buffer, 0.5 μM L-[14C]Cystine and 4.5 μM L-Cystine, 1 hour at 37° C.; read-out: pIC50 [^14C] L-Cystine uptake assay (converted)
In short: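 H4 cells at 5×10^4 cells/well in sodium-free HEPES buffer were preincubated 15 min with compounds (1% DMSO). Uptake of 0.5 μM [14C]L-cystine plus 4.5 μM unlabelled L-cystine ran 1 hour at 37° C on scintillating plates. IC50 was set between 1% DMSO and 50 μM Erastin controls and expressed as pIC50.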

Compound	IC50 (system Xc^− [1]) [nM]	IC50 (system Xc^− [2]) [nM]
Cc1cc2c(c(Cl)n1)-c1cccnc1C(O)C(=O)N2CC(=O)Nc1ccc(C(F)(F)F)cc1 (stereo not drawn) [#379, 2-(3-chloro-10-hydroxy-5-methyl-9-oxo-4,8,12-triazatricyclo[9.4.0.0^2,7]pentadeca-1(15),2(7),3,5,11,13-hexaen-8-yl)-N-[4-(trifluoromethyl)phenyl]acetamide]	15.8 to 39.8	< 15.8
CC1C(=O)N(CC(=O)Nc2ccc(C(F)F)cc2)c2cc(C#N)cc(Cl)c2-c2ccnn21 (stereo not drawn) [#388, 2-(11-chloro-9-cyano-5-methyl-6-oxo-5H-pyrazolo[1,5-d][1,4]benzodiazepin-7-yl)-N-[4-(difluoromethyl)phenyl]acetamide]	15.8 to 39.8	15.8 to 39.8
COc1nc(C)cc2c1-c1ccccc1CC(=O)N2CC(=O)Nc1ccc(C(F)(F)F)cc1 [#390, 2-(1-methoxy-3-methyl-6-oxo-7H-pyrido[4,3-d][3]benzazepin-5-yl)-N-[4-(trifluoromethyl)phenyl]acetamide]	15.8 to 39.8	15.8 to 39.8
COc1ccc2c(c1)C(C)C(=O)N(CC(=O)Nc1ccc(C(F)(F)F)cc1)c1cc(C)nc(Cl)c1-2 (stereo not drawn) [#393, 2-(1-chloro-9-methoxy-3,7-dimethyl-6-oxo-7H-pyrido[3,4-a][3]benzazepin-5-yl)-N-[4-(trifluoromethyl)phenyl]acetamide]	39.8 to 100	15.8 to 39.8
CC1C(=O)N(CC(=O)Nc2ccc(C(F)F)cc2)c2cc(Cl)nc(Cl)c2-c2cccnc21 (stereo not drawn) [#395, 2-(3,5-dichloro-10-methyl-9-oxo-4,8,12-triazatricyclo[9.4.0.0^2,7]pentadeca-1(11),2(7),3,5,12,14-hexaen-8-yl)-N-[4-(difluoromethyl)phenyl]acetamide]	15.8 to 39.8	39.8 to 100
COc1nc2c(cc1CO)N(CC(=O)Nc1ccc(Cl)c(F)c1)C(=O)C(C)c1ccccc1-2 (stereo not drawn) [#399, N-(4-chloro-3-fluoro-phenyl)-2-[3-(hydroxymethyl)-2-methoxy-7-methyl-6-oxo-7H-pyrido[3,2-d][3]benzazepin-5-yl]acetamide]	39.8 to 100	15.8 to 39.8
Cc1cc2c(c(F)n1)-c1ccccc1C(C)C(=O)N2CC(=O)Nc1ccc(Cl)c(F)c1 (stereo not drawn) [#402, N-(4-chloro-3-fluoro-phenyl)-2-(1-fluoro-3,7-dimethyl-6-oxo-7H-pyrido[3,4-a][3]benzazepin-5-yl)acetamide]	< 15.8	< 15.8

Results, then the molecule that gave them:

IC50 (system Xc^− [1]) [nM]	IC50 (system Xc^− [2]) [nM]	Compound
100 to 501	15.8 to 39.8	Cc1cc2c(c(F)n1)-c1cc(F)cnc1CC(=O)N2CC(=O)Nc1ccc(C(F)(F)F)cc1 [#391, 2-(3,14-difluoro-5-methyl-9-oxo-4,8,12-triazatricyclo[9.4.0.0^2,7]pentadeca-1(15),2(7),3,5,11,13-hexaen-8-yl)-N-[4-(trifluoromethyl)phenyl]acetamide]
39.8 to 100	15.8 to 39.8	Cc1cc2c(c(C#N)n1)-c1ncccc1CC(=O)N2CC(=O)Nc1ccc(C(F)(F)F)cc1 [#392, 2-(15-cyano-13-methyl-9-oxo-3,10,14-triazatricyclo[9.4.0.0^2,7]pentadeca-1(11),2,4,6,12,14-hexaen-10-yl)-N-[4-(trifluoromethyl)phenyl]acetamide]
39.8 to 100	100 to 501	COc1ncc(F)c2c1-c1ccccc1C(C)C(=O)N2CC(=O)Nc1ccc(Cl)c(F)c1 (stereo not drawn) [#400, N-(4-chloro-3-fluoro-phenyl)-2-(4-fluoro-1-methoxy-7-methyl-6-oxo-7H-pyrido[4,3-d][3]benzazepin-5-yl)acetamide]
15.8 to 39.8	39.8 to 100	Cc1cc2c(c(F)n1)-c1ccc(F)cc1C(C)C(=O)N2CC(=O)Nc1ccc(Cl)c(F)c1 (stereo not drawn) [#404, N-(4-chloro-3-fluoro-phenyl)-2-(1,9-difluoro-3,7-dimethyl-6-oxo-7H-pyrido[3,4-a][3]benzazepin-5-yl)acetamide]
39.8 to 100	39.8 to 100	CC1C(=O)N(CC(=O)Nc2ccc(Cl)c(F)c2)c2ccnc(OC(F)F)c2-c2cccnc21 (stereo not drawn) [#412, N-(4-chloro-3-fluoro-phenyl)-2-[3-(difluoromethoxy)-10-methyl-9-oxo-4,8,12-triazatricyclo[9.4.0.0^2,7]pentadeca-1(15),2,4,6,11,13-hexaen-8-yl]acetamide]

From patent publication US20260217708A1, “FUSED BENZAZEPINE DERIVATIVES FOR USE IN THE TREATMENT OF CANCER AND EPILEPSY” (UCB BIOPHARMA SRL, priority 2023, published 2026)
